Patent publication US9249129B2, “Morpholino substituted urea derivatives as mTOR inhibitors” (CELLZOME LIMITED, priority 2010, dated 2016)

Experiments:
Experiment in all cases: kinobeads assay with mass spectrometry detection of kinases (kinase selectivity profile)
Type in all cases: binding
kinases (kinome) [1] = target: T1, kinases (kinome) (Homo sapiens, UniProt Q9UBF8); settings: PIK4Cb (Lipid Kinase), IPI00641770
T1 construct: determined in kinobeads assays with mass spectrometry detection of kinases as described previously; endogenous in cells; host or cells: cell lysate
T1 sequence (Q9UBF8 whole entry): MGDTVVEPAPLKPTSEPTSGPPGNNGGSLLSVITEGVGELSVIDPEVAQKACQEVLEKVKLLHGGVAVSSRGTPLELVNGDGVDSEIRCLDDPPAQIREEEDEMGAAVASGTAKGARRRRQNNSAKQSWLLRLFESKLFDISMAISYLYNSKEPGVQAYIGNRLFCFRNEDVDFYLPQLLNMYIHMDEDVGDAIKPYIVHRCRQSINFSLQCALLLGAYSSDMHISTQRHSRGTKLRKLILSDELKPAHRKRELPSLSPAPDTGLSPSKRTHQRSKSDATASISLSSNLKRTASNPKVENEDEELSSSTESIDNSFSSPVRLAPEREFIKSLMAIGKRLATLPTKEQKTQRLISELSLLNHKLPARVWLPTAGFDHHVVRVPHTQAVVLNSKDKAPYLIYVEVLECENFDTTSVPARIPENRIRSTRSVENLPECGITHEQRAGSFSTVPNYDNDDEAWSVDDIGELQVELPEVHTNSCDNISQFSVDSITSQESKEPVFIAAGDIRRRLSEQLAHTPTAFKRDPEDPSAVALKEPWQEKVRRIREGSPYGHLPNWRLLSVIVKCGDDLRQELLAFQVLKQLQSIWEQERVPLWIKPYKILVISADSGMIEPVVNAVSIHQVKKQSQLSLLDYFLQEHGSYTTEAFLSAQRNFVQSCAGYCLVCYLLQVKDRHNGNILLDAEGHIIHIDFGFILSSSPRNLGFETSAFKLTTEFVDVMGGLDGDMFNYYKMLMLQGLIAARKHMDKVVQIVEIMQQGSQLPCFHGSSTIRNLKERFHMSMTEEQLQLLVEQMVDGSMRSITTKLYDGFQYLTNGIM
Excerpt: (§1) The protein kinase complement of the human genome (the kinome) was described previously (Manning et al., 2002. Science 298(5600):1912-1934). Sequence accession numbers are defined by the International Protein Index (IPI) (Kersey et al., 2004. Proteomics 4(7):1985-1988).

kinases (kinome) [2] = target: T2, kinases (kinome) (Homo sapiens, UniProt Q8IU85); settings: CaMK1d (CAMK), IPI00170508
T2 construct: determined in kinobeads assays with mass spectrometry detection of kinases as described previously; endogenous in cells; host or cells: cell lysate
T2 sequence (Q8IU85 whole entry): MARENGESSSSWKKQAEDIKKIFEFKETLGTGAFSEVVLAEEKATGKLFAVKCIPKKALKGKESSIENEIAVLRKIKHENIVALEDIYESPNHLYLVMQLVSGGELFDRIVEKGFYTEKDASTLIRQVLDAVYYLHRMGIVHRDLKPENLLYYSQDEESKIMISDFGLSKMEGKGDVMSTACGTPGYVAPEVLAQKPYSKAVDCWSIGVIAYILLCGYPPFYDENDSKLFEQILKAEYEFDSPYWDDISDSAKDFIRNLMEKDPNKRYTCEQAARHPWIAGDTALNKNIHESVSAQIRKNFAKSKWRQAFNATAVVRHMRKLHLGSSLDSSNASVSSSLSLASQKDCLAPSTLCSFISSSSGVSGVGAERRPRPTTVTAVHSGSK
Excerpt: as §1

kinases (kinome) [3] = target: T3, kinases (kinome) (Homo sapiens, UniProt P45984); settings: JNK2 (CMGC), IPI00303550
T3 construct: determined in kinobeads assays with mass spectrometry detection of kinases as described previously; endogenous in cells; host or cells: cell lysate
T3 sequence (P45984 whole entry): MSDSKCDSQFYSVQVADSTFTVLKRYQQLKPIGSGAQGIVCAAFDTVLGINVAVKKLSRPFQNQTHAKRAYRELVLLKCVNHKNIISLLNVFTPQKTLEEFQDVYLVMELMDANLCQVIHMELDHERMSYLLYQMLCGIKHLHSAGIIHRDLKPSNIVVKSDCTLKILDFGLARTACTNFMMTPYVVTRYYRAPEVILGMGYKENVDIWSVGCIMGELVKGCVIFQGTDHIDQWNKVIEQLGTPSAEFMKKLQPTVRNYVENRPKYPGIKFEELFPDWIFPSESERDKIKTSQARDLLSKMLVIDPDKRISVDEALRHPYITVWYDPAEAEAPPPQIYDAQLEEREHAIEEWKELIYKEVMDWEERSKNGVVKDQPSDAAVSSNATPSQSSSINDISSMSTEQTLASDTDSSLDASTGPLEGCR
Excerpt: as §1

kinases (kinome) [4] = target: T4, kinases (kinome) (Homo sapiens, UniProt Q15059); settings: BRD3 (Atypical), IPI00014266
T4 construct: determined in kinobeads assays with mass spectrometry detection of kinases as described previously; endogenous in cells; host or cells: cell lysate
T4 sequence (Q15059 whole entry): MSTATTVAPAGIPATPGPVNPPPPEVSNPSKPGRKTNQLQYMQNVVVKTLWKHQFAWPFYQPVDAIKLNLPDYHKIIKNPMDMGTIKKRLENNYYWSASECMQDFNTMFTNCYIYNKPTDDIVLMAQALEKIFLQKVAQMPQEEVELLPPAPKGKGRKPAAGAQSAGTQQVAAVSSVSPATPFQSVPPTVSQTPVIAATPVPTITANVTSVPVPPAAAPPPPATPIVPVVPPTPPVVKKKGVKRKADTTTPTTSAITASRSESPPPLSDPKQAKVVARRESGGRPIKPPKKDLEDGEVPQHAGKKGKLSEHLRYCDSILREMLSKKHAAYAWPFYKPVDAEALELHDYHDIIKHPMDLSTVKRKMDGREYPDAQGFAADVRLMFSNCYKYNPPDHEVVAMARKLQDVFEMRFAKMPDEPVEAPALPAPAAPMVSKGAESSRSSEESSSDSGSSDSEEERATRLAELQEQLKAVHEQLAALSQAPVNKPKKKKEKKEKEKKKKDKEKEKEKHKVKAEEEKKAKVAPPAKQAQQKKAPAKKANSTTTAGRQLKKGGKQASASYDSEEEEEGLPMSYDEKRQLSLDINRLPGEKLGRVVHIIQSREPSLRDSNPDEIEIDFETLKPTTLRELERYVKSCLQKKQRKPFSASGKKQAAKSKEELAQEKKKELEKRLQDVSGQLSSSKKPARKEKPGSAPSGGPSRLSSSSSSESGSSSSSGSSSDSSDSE
Excerpt: as §1

kinases (kinome) [5] = target: T5, kinases (kinome) (Homo sapiens, UniProt Q13043); settings: MST1 (STE), IPI00011488
T5 construct: determined in kinobeads assays with mass spectrometry detection of kinases as described previously; endogenous in cells; host or cells: cell lysate
T5 sequence (Q13043 1-487): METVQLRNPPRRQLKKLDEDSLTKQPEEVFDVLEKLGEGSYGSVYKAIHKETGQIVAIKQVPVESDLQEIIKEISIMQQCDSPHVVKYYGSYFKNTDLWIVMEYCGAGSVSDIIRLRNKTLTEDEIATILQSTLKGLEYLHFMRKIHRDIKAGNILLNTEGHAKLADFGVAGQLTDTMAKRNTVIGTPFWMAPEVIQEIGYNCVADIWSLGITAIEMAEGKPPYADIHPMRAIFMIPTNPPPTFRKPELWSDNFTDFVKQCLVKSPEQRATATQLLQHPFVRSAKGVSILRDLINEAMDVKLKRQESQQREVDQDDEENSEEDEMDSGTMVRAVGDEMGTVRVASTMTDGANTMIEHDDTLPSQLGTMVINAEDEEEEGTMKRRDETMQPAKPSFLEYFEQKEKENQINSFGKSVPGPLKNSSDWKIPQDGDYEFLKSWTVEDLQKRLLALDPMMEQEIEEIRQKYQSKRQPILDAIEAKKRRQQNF
Excerpt: as §1

kinases (kinome) [6] = target: T6, kinases (kinome) (Homo sapiens, UniProt P29323); settings: EphB2 (TK), IPI00021275
T6 construct: determined in kinobeads assays with mass spectrometry detection of kinases as described previously; endogenous in cells; host or cells: cell lysate
T6 sequence (P29323 19-1055): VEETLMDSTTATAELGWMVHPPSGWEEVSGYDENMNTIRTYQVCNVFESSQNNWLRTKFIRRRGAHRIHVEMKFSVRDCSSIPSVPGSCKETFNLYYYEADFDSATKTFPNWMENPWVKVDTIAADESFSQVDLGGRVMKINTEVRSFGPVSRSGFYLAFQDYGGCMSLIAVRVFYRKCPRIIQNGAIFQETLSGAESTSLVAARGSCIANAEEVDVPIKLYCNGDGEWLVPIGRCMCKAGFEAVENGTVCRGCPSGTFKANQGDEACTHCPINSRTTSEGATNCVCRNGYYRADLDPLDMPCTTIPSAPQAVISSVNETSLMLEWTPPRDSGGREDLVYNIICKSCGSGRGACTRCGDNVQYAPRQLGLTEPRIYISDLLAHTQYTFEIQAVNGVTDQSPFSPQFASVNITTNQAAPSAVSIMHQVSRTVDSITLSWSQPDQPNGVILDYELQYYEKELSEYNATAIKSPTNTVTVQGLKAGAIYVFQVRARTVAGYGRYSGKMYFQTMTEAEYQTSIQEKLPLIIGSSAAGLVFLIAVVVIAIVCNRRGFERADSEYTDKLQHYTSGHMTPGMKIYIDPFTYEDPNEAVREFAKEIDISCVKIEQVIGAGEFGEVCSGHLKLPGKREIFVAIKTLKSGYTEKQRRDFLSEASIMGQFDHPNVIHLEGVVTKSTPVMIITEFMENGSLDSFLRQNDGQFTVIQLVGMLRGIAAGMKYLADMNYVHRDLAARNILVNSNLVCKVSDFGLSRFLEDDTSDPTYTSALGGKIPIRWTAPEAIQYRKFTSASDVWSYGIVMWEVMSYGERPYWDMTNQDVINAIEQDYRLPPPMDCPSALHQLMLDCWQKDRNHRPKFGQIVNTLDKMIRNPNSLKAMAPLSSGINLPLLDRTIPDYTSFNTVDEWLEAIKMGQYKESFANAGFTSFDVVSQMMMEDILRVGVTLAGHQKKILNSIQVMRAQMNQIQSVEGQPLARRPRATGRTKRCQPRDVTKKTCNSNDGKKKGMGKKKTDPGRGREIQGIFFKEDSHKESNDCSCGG
Excerpt: as §1

kinases (kinome) [7] = target: T7, kinases (kinome) (Homo sapiens, UniProt Q96S53); settings: TESK2 (TKL), IPI00102677
T7 construct: determined in kinobeads assays with mass spectrometry detection of kinases as described previously; endogenous in cells; host or cells: cell lysate
T7 sequence (Q96S53 whole entry): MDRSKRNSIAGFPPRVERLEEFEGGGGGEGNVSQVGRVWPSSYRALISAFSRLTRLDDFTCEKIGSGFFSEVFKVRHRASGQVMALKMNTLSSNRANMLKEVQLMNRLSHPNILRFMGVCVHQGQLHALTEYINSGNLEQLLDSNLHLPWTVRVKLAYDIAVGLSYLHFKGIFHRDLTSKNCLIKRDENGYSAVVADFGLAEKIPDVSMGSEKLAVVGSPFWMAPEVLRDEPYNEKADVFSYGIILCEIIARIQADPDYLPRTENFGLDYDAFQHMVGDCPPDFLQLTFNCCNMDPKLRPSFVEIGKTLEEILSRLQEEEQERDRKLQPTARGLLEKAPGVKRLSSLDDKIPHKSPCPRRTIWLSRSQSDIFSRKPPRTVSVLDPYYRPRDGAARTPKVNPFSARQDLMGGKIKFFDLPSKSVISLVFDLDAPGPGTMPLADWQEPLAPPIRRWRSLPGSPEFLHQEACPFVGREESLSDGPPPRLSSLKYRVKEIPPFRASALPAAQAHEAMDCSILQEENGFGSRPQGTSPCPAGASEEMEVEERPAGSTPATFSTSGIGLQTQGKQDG
Excerpt: as §1

kinases (kinome) [8] = target: T8, kinases (kinome) (Homo sapiens, UniProt P12931); settings: SRC (TK), IPI00328867
T8 construct: determined in kinobeads assays with mass spectrometry detection of kinases as described previously; endogenous in cells; host or cells: cell lysate
T8 sequence (P12931 whole entry): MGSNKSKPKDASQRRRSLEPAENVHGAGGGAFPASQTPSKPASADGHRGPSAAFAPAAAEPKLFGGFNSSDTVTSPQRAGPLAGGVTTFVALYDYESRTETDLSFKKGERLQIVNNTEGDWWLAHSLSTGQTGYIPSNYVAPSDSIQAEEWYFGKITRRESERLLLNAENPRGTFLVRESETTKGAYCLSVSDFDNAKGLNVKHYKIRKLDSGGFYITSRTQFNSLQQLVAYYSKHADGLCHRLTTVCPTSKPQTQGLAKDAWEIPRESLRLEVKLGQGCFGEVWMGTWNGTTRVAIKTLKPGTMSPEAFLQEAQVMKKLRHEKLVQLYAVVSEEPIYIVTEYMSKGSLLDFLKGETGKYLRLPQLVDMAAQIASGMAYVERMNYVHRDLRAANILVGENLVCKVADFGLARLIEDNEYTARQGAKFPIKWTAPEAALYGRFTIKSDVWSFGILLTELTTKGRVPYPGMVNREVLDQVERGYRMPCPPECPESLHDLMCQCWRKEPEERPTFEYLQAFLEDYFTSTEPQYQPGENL
Excerpt: as §1

kinases (kinome) [9] = target: T9, kinases (kinome) (Homo sapiens, UniProt O43353); settings: RIPK2 (TKL), IPI00021917
T9 construct: determined in kinobeads assays with mass spectrometry detection of kinases as described previously; endogenous in cells; host or cells: cell lysate
T9 sequence (O43353 whole entry): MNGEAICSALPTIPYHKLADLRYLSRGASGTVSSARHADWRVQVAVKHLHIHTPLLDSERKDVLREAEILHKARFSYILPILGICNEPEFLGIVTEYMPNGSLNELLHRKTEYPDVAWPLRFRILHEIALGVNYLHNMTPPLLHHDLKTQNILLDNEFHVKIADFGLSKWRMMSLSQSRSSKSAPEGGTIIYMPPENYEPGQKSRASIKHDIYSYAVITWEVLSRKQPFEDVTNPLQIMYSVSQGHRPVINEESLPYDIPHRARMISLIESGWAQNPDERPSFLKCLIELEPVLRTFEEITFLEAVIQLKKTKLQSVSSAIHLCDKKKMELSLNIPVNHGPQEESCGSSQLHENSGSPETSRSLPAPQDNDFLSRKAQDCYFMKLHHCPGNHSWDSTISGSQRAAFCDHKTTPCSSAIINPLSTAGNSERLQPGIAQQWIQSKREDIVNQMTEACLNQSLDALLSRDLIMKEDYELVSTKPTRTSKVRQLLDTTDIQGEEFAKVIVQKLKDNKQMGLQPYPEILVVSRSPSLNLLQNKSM
Excerpt: as §1

Measured: IC50

C[C@H]1COCCN1c1nc(-c2ccc(NC(=O)NC3CC3)cc2)cc(-c2ccccc2S(C)(=O)=O)n1 [Example 4, (S)-1-cyclopropyl-3-(4-(2-(3-methylmorpholino)-6-(2-(methylsulfonyl)phenyl)pyrimidin-4-yl)phenyl)urea]
> 10 µM: all assays above

C[C@H]1COCCN1c1cc(-c2ccccc2S(C)(=O)=O)nc(-c2ccc(NC(=O)NC3CC3)cc2)n1 [Example 6, (S)-1-cyclopropyl-3-(4-(4-(3-methylmorpholino)-6-(2-(methylsulfonyl)phenyl)pyrimidin-2-yl)phenyl)urea]
> 10 µM: all assays above

CCNC(=O)Nc1ccc(-c2cc(-c3ccccc3C#N)nc(N3CCOC[C@@H]3C)n2)cc1 [Example 8, (S)-1-(4-(6-(2-cyanophenyl)-2-(3-methylmorpholino)pyrimidin-4-yl)phenyl)-3-ethylurea]
> 10 µM: all assays above

C[C@H]1COCCN1c1nc(-c2ccc(NC(=O)NC3CC3)cc2)cc(-c2cc(F)ccc2S(C)(=O)=O)n1 [Example 40, (S)-1-cyclopropyl-3-(4-(6-(5-fluoro-2-(methylsulfonyl)phenyl)-2-(3-methylmorpholino)pyrimidin-4-yl)phenyl)urea]
> 10 µM: all assays above

C[C@H]1COCCN1c1cc(-c2ccccn2)nc(-c2ccc(NC(=O)NCCO)cc2)n1 [Example 43, (S)-1-(2-hydroxyethyl)-3-(4-(4-(3-methylmorpholino)-6-(pyridin-2-yl)pyrimidin-2-yl)phenyl)urea]
> 10 µM: all assays above

C[C@H]1COCCN1c1nc(-c2ccc(NC(=O)NC3CC3)cc2)cc(-c2cccnc2S(C)(=O)=O)n1 [Example 46, (S)-1-cyclopropyl-3-(4-(2-(3-methylmorpholino)-6-(2-(methylsulfonyl)pyridin-3-yl)pyrimidin-4-yl)phenyl)urea]
> 10 µM: all assays above

C[C@H]1COCCN1c1nc(-c2ccc(NC(=O)N[C@H]3CCC[C@@H]3O)cc2)cc(-c2cc(F)ccc2S(C)(=O)=O)n1 [Example 76, 1-(4-(6-(5-fluoro-2-(methylsulfonyl)phenyl)-2-((S)-3-methylmorpholino)pyrimidin-4-yl)phenyl)-3-((1S,2S)-2-hydroxycyclopentyl)urea]
> 10 µM: all assays above
